Measured values as given in patent publication US9073858B2, “Methods of targeted drug development” (priority 2010, dated 2015).
“And” between values parts separate entries of the source, which are not always exact repeats. Identical values can stand only once. Like-named read-outs stand apart in the source and are kept apart here.

Tests used:
A549 cells = experiment: A549 Cell Proliferation Assay (MTT); format: cell-based; settings: Homo sapiens
Protocol: Cell proliferation is determined using the MTT assay. The MTT cell proliferation assay is a colorimetric assay system which measures the reduction of a tetrazolium component (MTT) into an insoluble formazan product by the mitochondria of viable cells. After incubation of the cells with the MTT reagent, DMSO is added to solubilize the colored crystals and the samples read at a wavelength of 560 nm. The amount of color produced is directly proportional to the number of viable cells. […] L11939) was prepared at 5 mg/ml in PBS. […] Plates were read on the PolarStar plate reader at 560 nm. […] IC50 values were calculated in GraphPad Prism using non-linear regression curve fitting. All statistical analyses was done either in GraphPad Prism or Microsoft Excel. […] Briefly, compounds are added to cells plated in 96-well plates. The cells are allowed to grow for 72 hours before MTT treatment. The effect of the compounds on cell proliferation is analyzed using GraphPad Prism. A549 cells are a non-small cell lung cancer cell line that have wild type EGFR and p53 but have point mutations in KRAS gene which transform it into an oncogene. […] SH30071.03, lot no. ATB31500), 1% Pen Strep (Gibco, cat no. […] On day 2, working solutions of compounds at 200× were prepared. […] Plates were incubated for 72 hours before analyzing them with MTT (as described above).

H1975 cells = experiment: H1975 Cell Proliferation Assay (MTT); format: cell-based; settings: Homo sapiens, read-out: IC50 Value (μM) H1975 Cells
Protocol: (§1) Cell proliferation is determined using the MTT assay. The MTT cell proliferation assay is a colorimetric assay system which measures the reduction of a tetrazolium component (MTT) into an insoluble formazan product by the mitochondria of viable cells. After incubation of the cells with the MTT reagent, DMSO is added to solubilize the colored crystals and the samples read at a wavelength of 560 nm. The amount of color produced is directly proportional to the number of viable cells.
(§2) 3-(4,5-Dimethylthiazol-2-yl)-2,5-diphenyltetrazolium Bromide (MTT) dye (Aesar, cat no. L11939) was prepared at 5 mg/ml in PBS. To each well, 20 μl of MTT solution was added to existing media and mixed thoroughly with 5 mins of gentle shaking at room temperature. Plates were incubated at 37° C., 5% CO2 for approximately 2 hrs. After 2-3 hrs incubation, media was aspirated out and plates were patted dry. […] Plates were incubated at 37° C., 5% CO2 for 10 min and mix thoroughly with 5 mins of gentle shaking at room temperature. Plates were read on the PolarStar plate reader at 560 nm. Percent (%) inhibition was calculated as 100%−(OD560 nm experimental-blank)×100%/OD560 nm control-blank. Blank=wells+serum free media+0.5% DMSO. Experimental=wells+cells+treatment+0.5% DMSO. Control=wells+cells+0.5% DMSO. IC50 values were calculated in GraphPad Prism using non-linear regression curve fitting. All statistical analyses was done either in GraphPad Prism or Microsoft Excel.
Briefly, compounds are added to cells plated in 96-well plates. The cells are allowed to grow for 72 hours before MTT treatment. The effect of the compounds on cell proliferation is analyzed using GraphPad Prism.

HT-29 cells = experiment: HT-29 Cell Proliferation Assay (MTT); format: cell-based
Protocol: as §1, §2
Briefly, compounds are added to cells plated in 96-well plates. […] The effect of the compounds on cell proliferation is analyzed using GraphPad Prism.
HT-29 cells are a colon cancer cell line that is utilized to assess the ability of compounds to inhibit the proliferation of cells in tumors of the colon.
For the HT-29 cell proliferation assay, on day 1, HT-29 cells are seeded at 3,000 cells/well in 100 μl media containing 10% FBS, 1× Pen-Strep, and 1× L-Glutamine in 96 well, tissue culture-treated plates. […] Working solutions of compounds were prepared (at […] in 100% DMSO). To 200 μl media, 20 μl of a 5× compound (diluted in plain media) was added for a final DMSO concentration of 0.5%. […] On day 5, plates were analyzed for cell growth using the MTT assay.

[1] = Stability on incubation with mouse liver microsomes (MLM); format: in vitro ADME; settings: percentage left after incubation with mouse liver microsomes for 30 minutes
Protocol: (§3) Stability of hydroxyquinoline analogs were determined (see e.g., TABLE 18). MLM represents the percentage left after incubation with mouse liver microsomes for 30 minutes. HLM represents the percentage left after incubation with human liver microsomes for 30 minutes.
(§4) Stability of analogs having a benzaldehyde derived ring were determined (see e.g., TABLE 18). MLM represents the percentage left after incubation with mouse liver microsomes for 30 minutes. HLM represents the percentage left after incubation with human liver microsomes for 30 minutes.

[2] = Stability on incubation with human liver microsomes (HLM); format: in vitro ADME; settings: percentage left after incubation with human liver microsomes for 30 minutes
Protocol: as §3, §4

[3] = A549, 72 h, read-out: IC50 Value (μM) A549 Cells
[4] = Homo sapiens, HT-29, 72 h, read-out: IC50 Value (μM) HT-29 Cells
[5] = A549, MTT, 72 hours, read-out: IC50 Value (μM) A549 Cells
[6] = Homo sapiens, HT-29, MTT, 72 hrs, read-out: IC50 Value (μM) HT-29 Cells
[7] = A549, read-out: IC50, cell proliferation in A549 or H1975 cells

| Compound | IC50 (A549 cells; [3]) [µM] | IC50 (H1975 cells; NCI-H1975, 72 h) [µM] | IC50 (HT-29 cells; [4]) [µM] | further results |
| --- | --- | --- | --- | --- |
| Cc1cc(NC(c2ccc3cccnc3c2O)c2c(Cl)cccc2Cl)ncc1Cl (stereo not shown) [AD4-13148] | 0.13 | 0.31 | 1.1 |  |
| COc1cc(Cl)cnc1NC(c1cc(Cl)cc(Cl)c1)c1ccc2cccnc2c1O (stereo not shown) [AD4-13216] | 0.12 |  | 1.6 |  |
| Oc1c(C(Nc2ccc(Cl)cn2)c2cc(C(F)(F)F)ccc2Cl)ccc2cccnc12 (stereo not shown) [AD4-13052] | 0.13 | 0.24 |  |  |
| Oc1c(C(Nc2cc(Cl)c(Cl)cn2)c2ccc(Cl)c(C(F)(F)F)c2)ccc2cccnc12 (stereo not shown) [AD4-13184] | 0.11 | 0.24 | 2.2 |  |
| Cc1cc(Cl)cnc1NC(c1ccc(Cl)c(Cl)c1)c1ccc2cccnc2c1O (stereo not shown) [AD4-13119] | 0.18 | 0.12 | 1.5 |  |
| Oc1c(C(Nc2cc(Cl)c(Cl)cn2)c2cc(Cl)cc(Cl)c2Cl)ccc2cccnc12 (stereo not shown) [AD4-13180] | 0.1 | 0.86 | 1.7 |  |
| Cc1cccc(NC(c2cc(Cl)ccc2Cl)c2ccc3ccc(C)nc3c2O)n1 (stereo not shown) [AD4-13090] |  |  |  | IC50 (A549 cells; [5]): 0.16 µM; IC50 (H1975 cells; NCI-H1975, MTT, 72 hours): 1.3 µM; IC50 (HT-29 cells; [6]): 3.7 µM |
| Oc1c(C(Nc2ccc(C(F)(F)F)cn2)c2ccc(Cl)c(C(F)(F)F)c2)ccc2cccnc12 (stereo not shown) [AD4-13032] | 0.17 | 0.21 |  |  |
| CCc1c(Cl)cnc(NC(c2ccc(Cl)cc2Cl)c2ccc3cccnc3c2O)c1F (stereo not shown) [AD4-13218] | 0.086 |  | 0.92 | IC50 (A549 cells; [7]): ≤ 0.1 µM |
| Cc1cccc(NC(c2ccc(Cl)c(Cl)c2)c2cc(Cl)c3cccnc3c2O)n1 (stereo not shown) [AD4-13081] |  |  |  | IC50 (A549 cells; [5]): 0.17 µM; IC50 (H1975 cells; NCI-H1975, MTT, 72 hours): 0.33 µM; IC50 (HT-29 cells; [6]): 6.2 µM |
| Oc1c(C(Nc2cc(Cl)ccn2)c2ccc(C(F)(F)F)cc2F)ccc2cccnc12 (stereo not shown) [AD4-13046] | 0.16 | 0.12 |  |  |
| Oc1c(C(Nc2cc(Cl)ccn2)c2cc(C(F)(F)F)ccc2Cl)ccc2cccnc12 (stereo not shown) [AD4-13060] | 0.19 | 0.58 |  |  |
| Cc1cc(Cl)ccc1NC(c1ccc(Cl)c(Cl)c1)c1ccc2cccnc2c1O (stereo not shown) [AD4-13204] |  |  |  | IC50 (A549 cells; [5]): 0.19 µM; IC50 (H1975 cells; NCI-H1975, MTT, 72 hours): 1.4 µM; IC50 (HT-29 cells; [6]): 4.5 µM |
| Oc1c(C(Nc2cc(Cl)c(Cl)cn2)c2cccc(Cl)c2)ccc2cccnc12 (stereo not shown) [AD4-13188] | 0.14 | 0.28 | 0.86 |  |
| Oc1c(C(Nc2ccc(C(F)(F)F)cn2)c2ccc(Cl)cc2Cl)ccc2cccnc12 (stereo not shown) [AD4-13033] | 0.13 | 0.23 |  | MLM % Remaining@ 30 Min [1]: 84%; HLM % Remaining@ 30 Min [2]: 100% |
| CS(=O)(=O)CCNCc1ccc(-c2ccc3ncnc(Nc4ccc(OCc5cccc(F)c5)c(Cl)c4)c3c2)o1 [Tykerb, reference compound] |  |  |  | IC50 (HT-29 cells; Homo sapiens, HT-29, 48 h, read-out: IC50, Comparison of Incubation Times in HT-29 Cell Proliferation Assay): 2.7 µM; IC50 (HT-29 cells; Homo sapiens, HT-29, 72 h, read-out: IC50, Comparison of Incubation Times in HT-29 Cell Proliferation Assay): 2.3 µM; IC50 (HT-29 cells; Homo sapiens, HT-29, read-out: HT-29 Cell Proliferation Assay Results (IC50)): 5 µM; IC50 (HT-29 cells; Homo sapiens, HT-29, read-out: IC50 from dose-response curves of FIG. 11, HT-29 cells): 2.7 µM; IC50 (HT-29 cells; read-out: HT-29 Cell Proliferation Assay Results (IC50)): 5.1 µM and 8.5 µM and 9.2 µM; IC50 (HT-29 cells; read-out: IC50, Comparison of Incubation Times in HT-29 Cell Proliferation Assay): 4.4 µM and 4.2 µM |
| Cc1nc(NC(c2cc(Cl)cc(Cl)c2Cl)c2ccc3cccnc3c2O)ccc1Cl (stereo not shown) [AD4-13209] | 0.17 | 0.14 | 2.3 |  |
| Cc1nc(NC(c2cc(Cl)cc(Cl)c2Cl)c2ccc3cccnc3c2O)c(Cl)cc1Cl (stereo not shown) [AD4-13213] | 0.16 |  | 5.4 |  |
| Oc1c(C(Nc2ncc(F)cc2F)c2ccc(F)cc2Cl)ccc2cccnc12 (stereo not shown) [AD4-13146] | 0.14 | 0.24 | 2 |  |

| Compound | IC50 (A549 cells; [3]) [µM] | IC50 (H1975 cells; NCI-H1975, 72 h) [µM] | IC50 (HT-29 cells; [4]) [µM] | further results |
| --- | --- | --- | --- | --- |
| Oc1c(C(Nc2ccc(C(F)(F)F)cn2)c2ccc(C(F)(F)F)cc2)ccc2cccnc12 (stereo not shown) [AD4-13028] | 0.14 | 0.26 |  |  |
| Cc1cc(NC(c2ccc(C(F)(F)F)cc2)c2ccc3cccnc3c2O)ncc1Cl (stereo not shown) [AD4-13121] | 0.18 | 0.33 | 1.8 |  |
| Oc1c(C(Nc2ncc(F)cc2F)c2c(Cl)cccc2Cl)ccc2cccnc12 (stereo not shown) [AD4-13138] | 0.17 | 0.3 | 1.1 |  |
| Cc1nc(NC(c2cc(Cl)cc(Cl)c2)c2ccc3cccnc3c2O)c(Cl)cc1Cl (stereo not shown) [AD4-13223] | 0.11 |  | 2.5 |  |
| Oc1c(C(Nc2ccc(C(F)(F)F)cn2)c2ccc(Cl)c(Cl)c2)ccc2cccnc12 (stereo not shown) [AD4-13030] | 0.17 | 0.22 |  |  |
| Cc1cc(Cl)cnc1NC(c1cccc(Cl)c1)c1ccc2cccnc2c1O (stereo not shown) [AD4-13159] | 0.11 | 0.13 | 1.2 |  |
| Cc1cc(Cl)cnc1NC(c1ccc2cccnc2c1O)c1c(F)cccc1Cl (stereo not shown) [AD4-13135] | 0.18 | 0.21 | 0.79 |  |
| Oc1c(C(Nc2ncc(Cl)cc2F)c2cccc(C(F)(F)F)c2)ccc2cccnc12 (stereo not shown) [AD4-13145] | 0.16 | 1.7 | 2.1 |  |
| Cc1nc(NC(c2cccc(Cl)c2Cl)c2ccc3cccnc3c2O)c(Cl)cc1Cl (stereo not shown) [AD4-13211] | 0.082 | 0.16 | 2 | IC50 (A549 cells; [7]): ≤ 0.1 µM |
| Oc1c(C(Nc2cc(Cl)c(Cl)cn2)c2ccc(Cl)cc2)ccc2cccnc12 (stereo not shown) [AD4-13187] | 0.15 | 0.26 | 1.3 |  |
| Cc1cc(Cl)cnc1NC(c1ccc2cccnc2c1O)c1c(Cl)cccc1Cl (stereo not shown) [AD4-13142] | 0.14 | 0.95 | 3.1 |  |
| Cc1cc(Cl)cnc1NC(c1cc(Cl)cc(Cl)c1Cl)c1ccc2cccnc2c1O (stereo not shown) [AD4-13167] | 0.1 | 0.31 | 1.5 |  |
| Oc1c(C(Nc2ncc(F)cc2F)c2ccc(Cl)cc2Cl)ccc2cccnc12 (stereo not shown) [AD4-13175] | 0.17 | 3.8 | 2 |  |
| Cc1cc(NC(c2ccc(Cl)cc2Cl)c2ccc3cccnc3c2O)ncc1Cl (stereo not shown) [AD4-13123] | 0.12 | 0.36 |  | MLM % Remaining@ 30 Min [1]: 30%; HLM % Remaining@ 30 Min [2]: 84% |
| Oc1c(C(Nc2cc(Cl)ccn2)c2ccc(C(F)(F)F)c(F)c2)ccc2cccnc12 (stereo not shown) [AD4-13048] | 0.18 | 0.17 |  |  |
| Oc1c(C(Nc2ccc(C(F)(F)F)cn2)c2ccc(C(F)(F)F)cc2F)ccc2cccnc12 (stereo not shown) [AD4-13031] | 0.12 | 0.24 |  | MLM % Remaining@ 30 Min [1]: 87%; HLM % Remaining@ 30 Min [2]: 93% |
| Cc1cc(NC(c2cc(Cl)cc(Cl)c2)c2ccc3cccnc3c2O)ncc1Cl (stereo not shown) [AD4-13122] |  |  |  | MLM % Remaining@ 30 Min [1]: 60%; HLM % Remaining@ 30 Min [2]: 94% |
| CCc1cc(Cl)cnc1NC(c1ccc(Cl)cc1Cl)c1ccc2cccnc2c1O (stereo not shown) [AD4-13217] | 0.12 |  | 0.96 |  |
